One assay has as its system A2780 cells. Description: In-vitro cell proliferation assay (SRB), A2780 cells. It is filed as cell-based. Conditions: Homo sapiens, A2780, 72 h, A2780 cells, 72 hours, SRB; read-out: A2780 IC50. A digest of the protocol: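 Proliferation is assessed by sulforhodamine B staining following a 72-hour incubation with compound dilutions containing 0.1% DMSO.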
Another assay concerns the target T1, NAMPT (Homo sapiens, UniProt P43490).
T1 construct: His tag; host or cells: E. coli
Nature of the assay: Biochemical inhibition assay: NAMPT enzymatic reaction, NMN quantified by mass spectrometry. The note with it: NAMPT enzymatic reaction; read-out: Biochem IC50. A digest of the protocol: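 Inhibition of E. coli-expressed His-tagged human NAMPT, measured as NMN formation by mass spectrometry after a 30 min room-temperature reaction containing 1 μM NAM, 100 μM PRPP and 2.5 mM ATP.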

Molecules are shown by their SMILES.

T1 sequence (P43490 whole entry): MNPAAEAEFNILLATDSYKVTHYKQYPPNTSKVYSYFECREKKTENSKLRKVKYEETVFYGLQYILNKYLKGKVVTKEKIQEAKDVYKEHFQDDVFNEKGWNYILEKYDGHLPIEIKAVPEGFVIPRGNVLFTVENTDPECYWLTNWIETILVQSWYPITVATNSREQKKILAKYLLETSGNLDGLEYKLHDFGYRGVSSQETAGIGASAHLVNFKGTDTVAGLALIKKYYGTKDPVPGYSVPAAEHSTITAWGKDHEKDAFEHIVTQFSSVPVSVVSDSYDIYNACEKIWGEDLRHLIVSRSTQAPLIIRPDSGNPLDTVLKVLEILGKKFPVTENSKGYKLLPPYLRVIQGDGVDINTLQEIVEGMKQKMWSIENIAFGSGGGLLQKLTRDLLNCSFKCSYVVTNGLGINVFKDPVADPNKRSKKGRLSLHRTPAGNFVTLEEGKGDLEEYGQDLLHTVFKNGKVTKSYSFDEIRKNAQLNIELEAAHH

The IC50 is the point on the concentration scale where inhibition reaches its midpoint. As for `COc1cccc(S(=O)(=O)c2ccc(CNC(=O)c3cnc4nccn4c3)cc2)c1OC`, the IC50 was found to be 77.6 nM in the assay on A2780 cells and 17.6 nM on NAMPT.
The corresponding values for `COc1cccc(S(=O)(=O)c2ccc(CNC(=O)c3cc4ccncc4o3)cc2)c1OC` are 13.6 nM and 9.3 nM.
On to `Cc1cccc(S(=O)(=O)c2ccc(CNC(=O)c3cnc4nccn4c3)cc2)c1C`, for which the IC50 was determined as 46.9 nM in the assay with A2780 cells and 4.1 nM on NAMPT.
The corresponding values for `Cc1cccc(S(=O)(=O)c2ccc(CNC(=O)c3cc4ccncc4o3)cc2)c1C` are 8 nM and 51.6 nM.
As for `Cc1cc(C)c(S(=O)(=O)c2ccc(CNC(=O)c3cc4ccncc4o3)cc2)cc1C`, the results for the IC50 in the assay with A2780 cells and on NAMPT were 14.1 nM and 9.1 nM, respectively.
In the same order, the values of `CC(=O)c1cccc(S(=O)(=O)c2ccc(CNC(=O)c3cnc4[nH]ncc4c3)cc2)c1` are 12.9 nM and 10 nM.
On to `CC(=O)c1cccc(S(=O)(=O)c2ccc(CNC(=O)c3cnc4nccn4c3)cc2)c1`, for which the concentration for half-maximal inhibition (IC50) amounted to 10.5 nM in the assay on A2780 cells and 1.8 nM at NAMPT.
The corresponding values for `CCCCOc1cccc(S(=O)(=O)c2ccc(CNC(=O)c3ccc4nccn4c3)cc2)c1` are 18 nM and 4.7 nM.
In the same order, the values of `CCCCOc1cccc(S(=O)(=O)c2ccc(CNC(=O)c3cc4ccncc4s3)cc2)c1` are 38.7 nM and 3.3 nM.
In the same order, the values of `O=C(NCc1ccc(S(=O)(=O)c2cccc(Cl)c2F)cc1)c1cnc2nccn2c1` are 17.6 nM and 2.4 nM.
For the compound `O=C(NCc1ccc(S(=O)(=O)c2cccc(Cl)c2F)cc1)c1cc2ccncc2o1`, the results for the IC50 with A2780 cells and at NAMPT were 12.8 nM and 10.9 nM, respectively.
In the same order, the values of `COc1c(Cl)cccc1S(=O)(=O)c1ccc(CNC(=O)c2cc3ccncc3o2)cc1` are 62.3 nM and 19.2 nM.
In the same order, the values of `Cc1c(Cl)cccc1S(=O)(=O)c1ccc(CNC(=O)c2ccc3nccn3c2)cc1` are 5 nM and 25.7 nM.
The corresponding values for `Cc1c(Cl)cccc1S(=O)(=O)c1ccc(CNC(=O)c2cc3ccncc3o2)cc1` are 1.6 nM and 2.6 nM.
`Cc1c(Cl)cccc1S(=O)(=O)c1ccc(CNC(=O)c2cc3cnccc3[nH]2)cc1`: the IC50 in the assay with A2780 cells was found to be 12 nM; on NAMPT, 62.5 nM.
On to `Cc1c(Cl)cccc1S(=O)(=O)c1ccc(CNC(=O)c2cnc3nccn3c2)cc1`, for which the 50% inhibitory concentration (IC50) with A2780 cells was 26.5 nM; on NAMPT, 4.3 nM.
In the same order, the values of `COc1ccc(S(=O)(=O)c2ccc(CNC(=O)c3cc4cnccc4[nH]3)cc2)cc1Cl` are 2.1 nM and 10.7 nM.
The corresponding values for `COc1ccc(S(=O)(=O)c2ccc(CNC(=O)c3cnc4nccn4c3)cc2)cc1Cl` are 1.8 nM and 1.8 nM.
The corresponding values for `COc1ccc(S(=O)(=O)c2ccc(CNC(=O)c3cnc4[nH]ncc4c3)cc2)cc1Cl` are 3.6 nM and 4 nM.
`Cc1ccc(S(=O)(=O)c2ccc(CNC(=O)c3cc4ccncc4s3)cc2)cc1Cl`: the IC50 was 1 nM in the assay on A2780 cells and 5.1 nM on NAMPT.
In the same order, the values of `Cc1ccc(S(=O)(=O)c2ccc(CNC(=O)c3cc4ccncc4o3)cc2)cc1Cl` are 1.7 nM and 52.8 nM.
The corresponding values for `Cc1ccc(S(=O)(=O)c2ccc(CNC(=O)c3cnc4nccn4c3)cc2)cc1Cl` are 1.2 nM and 1.8 nM.
In the case of `Cc1ccc(S(=O)(=O)c2ccc(CNC(=O)c3cc4cnccc4[nH]3)cc2)cc1Cl`, the figures for the half-inhibitory concentration (IC50) in the assay with A2780 cells and at NAMPT were 2.5 nM and 8.3 nM, respectively.
The corresponding values for `CCCOc1ccc(S(=O)(=O)c2ccc(CNC(=O)c3cc4ccncc4o3)cc2)cc1Cl` are 11.9 nM and 4.9 nM.
In the same order, the values of `CCCOc1ccc(S(=O)(=O)c2ccc(CNC(=O)c3cnc4nccn4c3)cc2)cc1Cl` are 2.4 nM and 3.9 nM.
In the same order, the values of `CCCOc1ccc(S(=O)(=O)c2ccc(CNC(=O)c3ccc4nccn4c3)cc2)cc1Cl` are 6 nM and 6.5 nM.
Take `CCCOc1ccc(S(=O)(=O)c2ccc(CNC(=O)c3cc4ccncc4s3)cc2)cc1Cl`: the half-maximal inhibitory concentration (IC50) with A2780 cells came out at 17.4 nM; on NAMPT, 15.1 nM.
In the same order, the values of `O=C(NCc1ccc(S(=O)(=O)c2cc(F)cc(Cl)c2)cc1)c1cc2ccncc2s1` are 0.6 nM and 1.4 nM.
In the same order, the values of `O=C(NCc1ccc(S(=O)(=O)c2cc(F)cc(Cl)c2)cc1)c1cc2ccncc2o1` are 3.1 nM and 17.8 nM.
In the same order, the values of `O=C(NCc1ccc(S(=O)(=O)c2cc(F)cc(Cl)c2)cc1)c1cnc2nccn2c1` are 2.9 nM and 2.4 nM.
Turning to `O=C(NCc1ccc(S(=O)(=O)c2cc(F)cc(Cl)c2)cc1)c1ccc2nccn2c1`, the half-inhibitory concentration (IC50) stood at 0.3 nM in the assay with A2780 cells and 3.9 nM on NAMPT.
As for `O=C(NCc1ccc(S(=O)(=O)c2cc(F)cc(Cl)c2)cc1)c1cnc2[nH]ncc2c1`, the values for the IC50 in the assay on A2780 cells and on NAMPT were 6 nM and 13.3 nM, respectively.
The corresponding values for `O=C(NCc1ccc(S(=O)(=O)c2cc(F)cc(Cl)c2)cc1)c1cc2cnccc2[nH]1` are 1.4 nM and 9.9 nM.
Turning to `COc1cc(Cl)cc(S(=O)(=O)c2ccc(CNC(=O)c3cc4ccncc4o3)cc2)c1`, the figures for the IC50 with A2780 cells and at NAMPT were 1.5 nM and 26.5 nM, respectively.
In the same order, the values of `COc1cc(Cl)cc(S(=O)(=O)c2ccc(CNC(=O)c3ccc4nccn4c3)cc2)c1` are 1.5 nM and 9.2 nM.
The corresponding values for `COc1cc(Cl)cc(S(=O)(=O)c2ccc(CNC(=O)c3cnc4[nH]ncc4c3)cc2)c1` are 2.5 nM and 9.3 nM.
In the case of `COc1cc(Cl)cc(S(=O)(=O)c2ccc(CNC(=O)c3cnc4nccn4c3)cc2)c1`, the IC50 in the assay with A2780 cells was found to be 0.8 nM; on NAMPT it was 1.3 nM.
On to `COc1cc(Cl)cc(S(=O)(=O)c2ccc(CNC(=O)c3cc4ccncc4s3)cc2)c1`, for which the IC50 with A2780 cells is 1.1 nM; at NAMPT it was 4.1 nM.
The corresponding values for `Cc1cc(Cl)cc(S(=O)(=O)c2ccc(CNC(=O)c3cnc4[nH]ncc4c3)cc2)c1` are 2.6 nM and 6.2 nM.
The corresponding values for `Cc1cc(Cl)cc(S(=O)(=O)c2ccc(CNC(=O)c3cnc4nccn4c3)cc2)c1` are 2.3 nM and 4.8 nM.
In the same order, the values of `Cc1cc(Cl)cc(S(=O)(=O)c2ccc(CNC(=O)c3ccc4nccn4c3)cc2)c1` are 2 nM and 6.4 nM.
Turning to `O=C(NCc1ccc(S(=O)(=O)c2cccc(Cl)c2)cc1)c1cc2ncccc2[nH]1`, the figures for the half-maximal inhibitory concentration (IC50) in the assay with A2780 cells and at NAMPT were 13 nM and 3.9 nM, respectively.
The corresponding values for `O=C(NCc1ccc(S(=O)(=O)c2cccc(Cl)c2)cc1)c1cnc2nccn2c1` are 1.2 nM and 1.3 nM.
In the same order, the values of `O=C(NCc1ccc(S(=O)(=O)c2ccc(F)c(F)c2)cc1)c1cc2ccncc2o1` are 13 nM and 16.8 nM.
In the same order, the values of `O=C(NCc1ccc(S(=O)(=O)c2ccc(F)c(F)c2)cc1)c1cnc2nccn2c1` are 36.3 nM and 4.1 nM.
Consider `O=C(NCc1ccc(S(=O)(=O)c2ccc(F)c(F)c2)cc1)c1cnc2[nH]ncc2c1`, for which the figures for the half-inhibitory concentration (IC50) in the assay on A2780 cells and at NAMPT were 28.9 nM and 54.2 nM, respectively.
The corresponding values for `COc1ccc(S(=O)(=O)c2ccc(CNC(=O)c3cc4ccncc4o3)cc2)cc1OC` are 3.8 nM and 6.2 nM.
In the same order, the values of `COc1ccc(S(=O)(=O)c2ccc(CNC(=O)c3cnc4[nH]ncc4c3)cc2)cc1OC` are 5.6 nM and 20.6 nM.
The corresponding values for `COc1ccc(S(=O)(=O)c2ccc(CNC(=O)c3cnc4nccn4c3)cc2)cc1OC` are 7.3 nM and 2.9 nM.
Regarding `Cc1ccc(S(=O)(=O)c2ccc(CNC(=O)c3cnc4[nH]ncc4c3)cc2)cc1C`, the IC50 with A2780 cells was determined as 3.4 nM; on NAMPT, 5.1 nM.
The corresponding values for `Cc1ccc(S(=O)(=O)c2ccc(CNC(=O)c3cnc4nccn4c3)cc2)cc1C` are 1.6 nM and 1.1 nM.
`Cc1ccc(S(=O)(=O)c2ccc(CNC(=O)c3cc4ccncc4o3)cc2)cc1C`: the values for the IC50 with A2780 cells and on NAMPT were 3 nM and 15 nM, respectively.
In the same order, the values of `O=C(NCc1ccc(S(=O)(=O)c2cc(Cl)cc(Cl)c2)cc1)c1cnc2[nH]ncc2c1` are 2.1 nM and 6.7 nM.
The corresponding values for `O=C(NCc1ccc(S(=O)(=O)c2cc(Cl)cc(Cl)c2)cc1)c1cc2cnccc2[nH]1` are 0.4 nM and 1 nM.
In the same order, the values of `O=C(NCc1ccc(S(=O)(=O)c2cc(F)cc(F)c2)cc1)c1cnc2nccn2c1` are 3 nM and 2 nM.
On to `COc1cc(OC)cc(S(=O)(=O)c2ccc(CNC(=O)c3cc4ccncc4o3)cc2)c1`, for which the figures for the concentration for half-maximal inhibition (IC50) with A2780 cells and on NAMPT were 1.7 nM and 2.7 nM, respectively.
With `COc1cc(OC)cc(S(=O)(=O)c2ccc(CNC(=O)c3cc4cnccc4[nH]3)cc2)c1`, the values for the half-inhibitory concentration (IC50) with A2780 cells and on NAMPT were 1.5 nM and 4.4 nM, respectively.
In the same order, the values of `COc1cc(OC)cc(S(=O)(=O)c2ccc(CNC(=O)c3cnc4[nH]ncc4c3)cc2)c1` are 2.2 nM and 2.6 nM.
The corresponding values for `COc1cc(OC)cc(S(=O)(=O)c2ccc(CNC(=O)c3cc4ccncc4s3)cc2)c1` are 0.9 nM and 1.3 nM.
Regarding `Cc1cc(C)cc(S(=O)(=O)c2ccc(CNC(=O)c3cnc4nccn4c3)cc2)c1`, the figures for the IC50 in the assay with A2780 cells and on NAMPT were 2 nM and 1.7 nM, respectively.
In the same order, the values of `Cc1cc(C)cc(S(=O)(=O)c2ccc(CNC(=O)c3cnc4[nH]ncc4c3)cc2)c1` are 6.1 nM and 10.4 nM.
With `Cc1cc(C)cc(S(=O)(=O)c2ccc(CNC(=O)c3cc4ccncc4o3)cc2)c1`, the figures for the half-inhibitory concentration (IC50) in the assay on A2780 cells and at NAMPT were 2.8 nM and 16.7 nM, respectively.

(Values after patent US12336981B2, “Compounds and compositions for the inhibition of NAMPT” (Valo Health, Inc., priority 2010, dated 2025).)
